Experimental findings from patent publication US20240376097A1, “BCL-2 Inhibitor” (BeiGene Ltd., priority 2020, published 2024) are described below.

For assay [1], the target named is Recombinant human Bcl-2 protein (Homo sapiens (Human), UniProt P10415). Briefly: Bcl-2 TR-FRET Assay. The note with it: Bcl-2 wild type, TR-FRET; read-out: Biochemical assay (IC50, nM) Bcl-2 WT. Format: binding. In a few lines:
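TR-FRET read (337 nm excitation, 520/490 nm emission) after 1 h with 0.5 nM FITC-labeled Bak peptide and Tb-cryptate anti-6His antibody. Bcl-2 at 0.05 nM had been pre-incubated 0.5 h with compound. IC50 fitted by four-parameter logistic equation.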
In general terms: Time-resolved FRET reads energy transfer from a long-lived donor to a nearby acceptor.

The target in assay [2] is recombinant human Bcl-2-G101V protein (Homo sapiens (Human), UniProt P10415, G101V). Briefly: Bcl-2-G101V TR-FRET Assay. Format: binding. Particulars: Bcl-2 G101V mutant, TR-FRET; read-out: Biochemical assay (IC50, nM) Bcl-2 G101V. In a few lines: (§1)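 Compounds were titrated at increasing concentrations against the Bcl-2-G101V–ligand interaction. TR-FRET signals were then read (ex 337 nm; em 490/520 nm). Percent inhibition was derived from the 490-to-520 nm ratio, and IC50 from a four-parameter logistic equation.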

The subject of assay [3] is recombinant human Bcl-2-G101V protein. The assay is described as follows: Bcl-2-G101V TR-FRET Assay. The class given is binding. The note with it: ratio of biochemical IC50 Bcl-2 G101V / Bcl-2 WT. The method, boiled down: as §1
For assay [4], the system named is RS4;11 (BCL-2 dependent acute lymphoblastic leukemia cell line). Briefly: RS4;11 Cell Proliferation Assay. The class given is cell-based. The note with it: Homo sapiens, RS4-11, RS4;11 cells, read-out: Cellular proliferation assay (IC50, nM) RS4. In a few lines:
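Viability measured via CellTiter-Glo luminescence after a 48 h, 37 °C exposure to compounds (10 points, highest 1 μM). Seeding was 50,000 RS4;11 cells per well in 10% FBS RPMI-1640; IC50 given as mean.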

Assay [5] relates to BCL-2 G101V knock-in cell line H96 (derive from RS4;11). Briefly: Bcl 2-G101V Knock-In RS4;11 Cell Proliferation Assay. Particulars: Homo sapiens, RS4;11 Bcl-2 G101V knock-in clone H96, 48 hrs, CellTiter-GLO, read-out: Cellular proliferation assay (IC50, nM) RS4. The class given is cell-based. The method, boiled down: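 CellTiter-Glo luminescence after 48 h, 37 °C compound treatment (10 concentrations, maximum 1 μM or 10 μM) gave mean IC50 values. Cells were 50,000 per well of H96, a BCL2-G101V knock-in single clone derived from RS4;11 by Cas9 editing.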
(In general: ATP-based viability assays read luminescence as a measure of living cells.)

Turning to `COc1ccc(CN2CCN(C3CC4(CCN(c5ccc(C(=O)NS(=O)(=O)c6ccc(NC[C@H]7CC[C@](C)(O)CC7)c([N+](=O)[O-])c6)c(Oc6cnc7[nH]ccc7c6)c5)CC4)C3)C(c3ccccc3C(C)C)C2)cc1OC(F)F` (stereo partly drawn) [Example 169, 2-((1H-pyrrolo[2,3-b]pyridin-5-yl)oxy)-4-(2-(4-(3-(difluoromethoxy)-4-methoxybenzyl)-2-(2-isopropylphenyl)piperazin-1-yl)-7-azaspiro[3.5]nonan-7-yl)-N-((4-((((1r,4r)-4-hydroxy-4-methylcyclohexyl)methyl)amino)-3-nitrophenyl)sulfonyl)benzamide], the IC50 in assay [1] came out at 0.62 nM; in assay [2], 2.4 nM; in assay [4], 0.49 nM; in assay [5], 1.5 nM. The “Ratio of Bcl-2 G101V/WT” value in assay [3] was determined as 3.9.

On to `CC(C)c1ccccc1C1CN(Cc2ccc(OC3CC3)cc2)CCN1C1CC2(CCN(c3ccc(C(=O)NS(=O)(=O)c4ccc(NC[C@H]5CC[C@](C)(O)CC5)c([N+](=O)[O-])c4)c(Oc4cnc5[nH]ccc5c4)c3)CC2)C1` (stereo partly drawn) [Example 172, 2-((1H-pyrrolo[2,3-b]pyridin-5-yl)oxy)-4-(2-(4-(4-cyclopropoxybenzyl)-2-(2-isopropylphenyl)piperazin-1-yl)-7-azaspiro[3.5]nonan-7-yl)-N-((4-((((1r,4r)-4-hydroxy-4-methylcyclohexyl)methyl)amino)-3-nitrophenyl)sulfonyl)benzamide], for which the IC50 was found to be 0.35 nM in assay [1], 1.9 nM in assay [2], 0.43 nM in assay [4] and 1.64 nM in assay [5]. For the same compound, the “Ratio of Bcl-2 G101V/WT” value in assay [3] worked out at 5.5.

For `COc1ccc(CN2CCN(C3CC4(C3)CN(c3ccc(C(=O)NS(=O)(=O)c5ccc(NCC6CCOCC6)c([N+](=O)[O-])c5)c(Oc5cnc6[nH]ccc6c5)c3)C4)[C@H](c3ccccc3C(C)C)C2)cc1OC` [Example 173, (R)-2-((1H-pyrrolo[2,3-b]pyridin-5-yl)oxy)-4-(6-(4-(3,4-dimethoxybenzyl)-2-(2-isopropylphenyl)piperazin-1-yl)-2-azaspiro[3.3]heptan-2-yl)-N-((3-nitro-4-(((tetrahydro-2H-pyran-4-yl)methyl)amino)phenyl)sulfonyl) benzamide], the IC50 in assay [1] came out at 0.017 nM; in assay [2], 0.11 nM; in assay [4] it was 0.18 nM; in assay [5] it was 0.6 nM. Moreover, the “Ratio of Bcl-2 G101V/WT” value in assay [3] was 6.5.

For the compound `[2H]C([2H])([2H])Oc1ccc(CN2CCN(C3CC4(CCN(c5ccc(C(=O)NS(=O)(=O)c6ccc(NC[C@H]7CC[C@](C)(O)CC7)c([N+](=O)[O-])c6)c(Oc6cnc7[nH]ccc7c6)c5)CC4)C3)C(c3ccccc3C(C)C)C2)cc1OC([2H])([2H])[2H]` (stereo partly drawn) [Example 175, 2-((1H-pyrrolo[2,3-b]pyridin-5-yl)oxy)-4-(2-(4-(3,4-bis(methoxy-d3)benzyl)-2-(2-isopropylphenyl)piperazin-1-yl)-7-azaspiro[3.5]nonan-7-yl)-N-((4-((((1r,4r)-4-hydroxy-4-methylcyclohexyl)methyl)amino)-3-nitrophenyl)sulfonyl)benzamide], the IC50 in assay [1] stood at 0.041 nM; in assay [2], 0.29 nM; in assay [4], 0.33 nM; in assay [5] it was 1 nM. Also, in assay [3], the “Ratio of Bcl-2 G101V/WT” value was determined as 7.0.

Turning to `CC(C)c1ccccc1C1CN(Cc2cccc(OC3CC3)c2)CCN1C1CC2(CCN(c3ccc(C(=O)NS(=O)(=O)c4ccc(NC[C@H]5CC[C@](C)(O)CC5)c([N+](=O)[O-])c4)c(Oc4cnc5[nH]ccc5c4)c3)CC2)C1` (stereo partly drawn) [Example 178, 2-((1H-pyrrolo[2,3-b]pyridin-5-yl)oxy)-4-(2-(4-(3-cyclopropoxybenzyl)-2-(2-isopropylphenyl)piperazin-1-yl)-7-azaspiro[3.5]nonan-7-yl)-N-((4-((((1r,4r)-4-hydroxy-4-methylcyclohexyl)methyl)amino)-3-nitrophenyl)sulfonyl)benzamide], the IC50 amounted to 0.52 nM in assay [1], 1.5 nM in assay [2], 0.64 nM in assay [4] and 4.87 nM in assay [5]. Further, the “Ratio of Bcl-2 G101V/WT” value in assay [3] was 2.9.

As for `COc1ccc(CN2CCN(C3CC4(C3)CN(c3ccc(C(=O)NS(=O)(=O)c5ccc(NCC6CCOCC6)c([N+](=O)[O-])c5)c(Oc5cnc6[nH]cc(F)c6c5)c3)C4)[C@H](c3ccccc3C(C)C)C2)cc1` [Example 183, (R)-2-((3-fluoro-1H-pyrrolo[2,3-b]pyridin-5-yl)oxy)-4-(6-(2-(2-isopropylphenyl)-4-(4-methoxybenzyl)piperazin-1-yl)-2-azaspiro[3.3]heptan-2-yl)-N-((3-nitro-4-(((tetrahydro-2H-pyran-4-yl)methyl)amino)phenyl)sulfonyl) benzamide], the IC50 was 0.096 nM in assay [1], 0.18 nM in assay [2], 0.1 nM in assay [4] and 0.52 nM in assay [5]. For the same compound, the “Ratio of Bcl-2 G101V/WT” value in assay [3] is listed as 1.8.

On to `COc1ccc(CN2CCN(C3CC4(CCN(c5ccc(C(=O)NS(=O)(=O)c6ccc(NC[C@H]7CC[C@](C)(O)CC7)c([N+](=O)[O-])c6)c(Oc6cnc7[nH]ccc7c6)c5)CC4)C3)C(c3ccccc3C(C)C)C2)cc1OC1CC1` (stereo partly drawn) [Example 186, 2-((1H-pyrrolo[2,3-b]pyridin-5-yl)oxy)-4-(2-(4-(3-cyclopropoxy-4-methoxybenzyl)-2-(2-isopropylphenyl)piperazin-1-yl)-7-azaspiro[3.5]nonan-7-yl)-N-((4-((((1r,4r)-4-hydroxy-4-methylcyclohexyl)methyl)amino)-3-nitrophenyl)sulfonyl)benzamide], for which the IC50 was 0.15 nM in assay [1], 0.64 nM in assay [2], 0.53 nM in assay [4] and 2.5 nM in assay [5]. The “Ratio of Bcl-2 G101V/WT” value in assay [3] is given as 4.2.

On to `COc1ccc(CN2CCN(C3CC4(CCN(c5ccc(C(=O)NS(=O)(=O)c6ccc(NCC7CCOCC7)c([N+](=O)[O-])c6)c(Oc6cnc7[nH]cc(F)c7c6)c5)CC4)C3)[C@H](c3ccccc3C(C)C)C2)cc1OC` [Example 191, (R)-4-(2-(4-(3,4-dimethoxybenzyl)-2-(2-isopropylphenyl)piperazin-1-yl)-7-azaspiro[3.5]nonan-7-yl)-2-((3-fluoro-1H-pyrolo[2,3-b]pyridin-5-yl)oxy)-N-((3-nitro-4-(((tetrahydro-2H-pyran-4-yl)methyl)amino)phenyl)sulfonyl) benzamide], for which the IC50 was found to be 0.061 nM in assay [1], 0.2 nM in assay [2], 0.15 nM in assay [4] and 0.52 nM in assay [5]. In addition, in assay [3], the “Ratio of Bcl-2 G101V/WT” value worked out at 3.3.

As for `[2H]C([2H])(c1ccc(OC)c(OC)c1)N1CCN(C2CC3(CCN(c4ccc(C(=O)NS(=O)(=O)c5ccc(NC[C@H]6CC[C@](C)(O)CC6)c([N+](=O)[O-])c5)c(Oc5cnc6[nH]ccc6c5)c4)CC3)C2)C(c2ccccc2C(C)C)C1` (stereo partly drawn) [Example 193], the IC50 in assay [1] was determined as 0.068 nM; in assay [2], 0.23 nM; in assay [4], 0.26 nM; in assay [5] it was 0.8 nM. Besides, the “Ratio of Bcl-2 G101V/WT” value in assay [3] is given as 3.4.
